# Results published in US12285034B2, “Human and non-human animal use of microbial anaplerotic oil” (HELIAE DEVELOPMENT, LLC, priority 2017, dated 2025).
# Where two headings read alike, the source gives them in different places.
# Legend:
# [1] = system: Aurantiochytrium acetophilum HS399; assay: Model of intracellular (cytosolic) propionate, Henderson-Hasselbalch (Example 4)
# Description: In one implementation, the change in pH may be calculated with the following equation derived from the Henderson and Hasselbalch equation: […]
# [2] = system: Aurantiochytrium acetophilum HS399; assay: Growth on propionate as sole carbon source (Example 9); assay type: cell-based; details: 10 g/L, pH 7
# Description: FIG. 35 is a graphical representation of one implementation that illustrates results 3500 of growth of A. acetophilum HS399 with different carbon sources.
# [3] = system: Aurantiochytrium acetophilum HS399
# Description: The cultures are incubated in an orbital shaker at 180 rpm and 27° C.
# Respective Erlenmeyer flasks contain 100 mL of a medium supplemented with (g/L): dextrose (100), ammonium acetate (4.6), NaCl (12.5), MgSO4 7H2O (2.5), KH2PO4 (0.5), KCl (0.5) and CaCl2 (0.1). This medium also contains trace element solution (5 ml/L) and vitamin solution (1 ml/L). The trace element solution contains (g/L): EDTA di-sodium salt (6), FeCl3 6H2O (0.29), […] (6.84), MnCl2 4H2O (0.86), ZnCl2 (0.06), CoCl2 6H2O (0.026), NiSO4 6H2O (0.052), CuSO4 5H2O (0.002), Na2MoO4H2O (0.005). The vitamin solution contains (mg/L): thiamine (100), biotin (0.5) and cyanocobalamin (0.5). All culture materials can be autoclaved (e.g., 121° C., 15 min) and the media can be filter sterilized before use. […] Daily samples are collected to analyze the cell dry weight, residual glucose, culture pH (see FIG. 9), and lipid and fatty acid composition of the cultures. Cell dry weights (CDW) can be analyzed by filtration (e.g., 0.2 μm filter media) using a vacuum, and washed with a solution of ammonium bicarbonate. Residual glucose can be analyzed using colorimetric methods based on glucose […] activity. Biomass for lipid analysis is centrifuged and washed using purified water. The washed biomass is freeze dried. Total lipids are analyzed using Folch method (AOAC 996.06) and the FAMES re analyzed by gas chromatography using nonadecanoic (C19:0) acid as an internal standard.
# [4] = system: Yarrowia lipolytica ATCC18944; assay type: cell-based; details: for Total Fatty Acids / Total Lipids: 168 h
# Description: Culture conditions. In one implementation, Yarrowia lipolytica ATCC18944 can be cultivated in triplicates (n=3) in a medium containing (g/L): glycerol (80), monosodium […]), yeast extract (1), NaCl (12.5), MgSO4 (7), H2O (2.5), KCl (0.5), CaCl2 (0.1), KH2PO4 (0.5), trace metal solution (5 mL) and vitamin solution (1 mL). The trace element solution may contain (g/L): […] The vitamin solution can be filter-sterilized (e.g., using 0.2 μm pore size filter) containing (mg L-1): thiamine (100), biotin (0.5) and cyanocobalamin (0.5) unless otherwise stated. In some implementations cyanocobalamin might be added to or subtracted from the medium formulation to change or impact propionic acid deposition in OCFA. […] In one implementation, a concentration of the cyanocobalamin and/or cobalt in the culture medium can be below 0.4 μM. […] The flasks can be incubated in the dark in an orbital shaker at 180 rpm, 27° C. In this implementation, sodium propionate is fed batch every day according to respective treatments. […] Analyses. Cell dry weights can be obtained by drying samples that are previously vacuum filtrated (e.g., using 0.2 μm pore size filters). Residual propionate is analyzed directly by high performance liquid chromatography (HPLC). Lipids and total fatty acids are analyzed using a direct extraction, transesterification followed by gas chromatography (GC) and detection by flame ionization (FID). The different fatty acids are identified and quantified using appropriate internal and external standards. Propionic acid deposition rate.
# mold and bacteria = details: low levels; cited from earlier work
# [5] = 116 h, propionate 3 + 3 + 3 g/L
# [6] = propionate 3 + 3 + 3 g/L (166 h)
# [7] = daily propionate 0+0+1+1+1+1 g/L
# [8] = daily propionate 0+0+2+2+2+2 g/L
# [9] = 192 h, itaconic acid 0 / propionate 6 g/L
smiles,measurement,setting,value
"CCC(=O)O [Propionate, propionic acid]",intracellular propionate concentration,"[1]; from 1 g/L, pH 7 (growth inhibitory)",1 g/L
same,intracellular propionate concentration,"[1]; from ~15 g/L residual, pH 6 (lethal)",176 g/L
same,"lethal threshold, Cytosolic Propionate","[1]; initial propionate 20 g/L, pH 6.4",97.7 g/L
same,D1-D4 Average Internal Propionic Acid (Theoretical Values),[1]; pH 5 set point,56.70 g/L
same,D1-D4 Average Internal Propionic Acid (Theoretical Values),[1]; pH 6 set point,4.18 g/L
same,D1-D4 Average Internal Propionic Acid (Theoretical Values),[1]; pH 7 set point,0.13 g/L
same,"lethal threshold, Cytosolic Propionate","[1]; pH drift approach, pH 5.3, 2.3 g/L, listed as Propionic acid",107.5 ± 3.5 g/L
same,"lethal threshold, Cytosolic Propionate","[1]; pH drift approach, pH 5.3, 2.3 g/L, listed as propionate",107.5 g/L
same,growth on propionate as sole carbon source,[2],did not support growth above that of the starved treatment
same,OCFA,"[3]; 68 h, propionate 3 + 3 + 3 g/L",60.6 ± 0.4 % TFA
same,Total Fatty Acids,"[3]; 68 h, propionate 3 + 3 + 3 g/L",40.7 ± 1.7 % DW
same,OCFA,"[3]; 68 h, propionate 3 + 3 g/L",60.9 ± 0.6 % TFA
same,Total Fatty Acids,"[3]; 68 h, propionate 3 + 3 g/L",44.5 ± 4.5 % DW
same,OCFA,"[3]; 68 h, propionate 3 g/L",52.9 ± 7.3 % TFA
same,Total Fatty Acids,"[3]; 68 h, propionate 3 g/L",45.1 ± 3.0 % DW
same,growth (cell dry weight),"[3]; 70 h, fed batching of 9 g/L propionate",~15 g/L
same,Total Fatty Acids,"[3]; 96 h, propionate 3 + 3 + 3 g/L",56.3 ± 1.2 % DW
same,Total Lipids,"[3]; 96 h, propionate 3 + 3 + 3 g/L",70.0 ± 1.0 % DW
same,OCFA,"[3]; 96 h, propionate 3 + 3 + 3 g/L (P9)",62.9 ± 0.2 % TFA
same,OCFA,"[3]; 96 h, propionate 3 + 3 + 3 g/L (P9), listed as propionate",62.4 % TFA
same,Total Fatty Acids,"[3]; 96 h, propionate 3 + 3 g/L",62.5 ± 0.3 % DW
same,Total Lipids,"[3]; 96 h, propionate 3 + 3 g/L",73.3 ± 1.5 % DW
same,OCFA,"[3]; 96 h, propionate 3 + 3 g/L (P6)",62.8 ± 0.2 % TFA
same,OCFA,"[3]; 96 h, propionate 3 + 3 g/L (P6), listed as propionate",62.4 % TFA
same,OCFA,"[3]; 96 h, propionate 3 g/L",24.0 ± 1.0 % TFA
same,Total Fatty Acids,"[3]; 96 h, propionate 3 g/L",66.8 ± 4.8 % DW
same,Total Lipids,"[3]; 96 h, propionate 3 g/L",81.0 ± 1.0 % DW
same,OCFA,[3]; [5],60.8 ± 0.2 % TFA
same,Total Fatty Acids,[3]; [5],63.1 ± 2.0 % DW
same,Total Lipids,[3]; [5],74.0 ± 1.0 % DW
same,OCFA,"[3]; 116 h, propionate 3 + 3 + 3 g/L, listed as propionic acid",60.4 % TFA
same,OCFA,"[3]; 116 h, propionate 3 + 3 g/L",57.5 ± 1.4 % TFA
same,Total Fatty Acids,"[3]; 116 h, propionate 3 + 3 g/L",70.8 ± 0.6 % DW
same,Total Lipids,"[3]; 116 h, propionate 3 + 3 g/L",77.7 ± 0.6 % DW
same,OCFA,"[3]; 116 h, propionate 3 g/L",22.8 ± 0.8 % TFA
same,Total Fatty Acids,"[3]; 116 h, propionate 3 g/L",71.7 ± 4.3 % DW
same,Total Lipids,"[3]; 116 h, propionate 3 g/L",74.8 ± 0.3 % DW
same,non-lethal but growth inhibitory concentration,"[3]; as low as, pH of 7",1 g/L
same,OCFA Productivity,[3]; [6],2.56 ± 0.04 g/L/day
same,Propionate deposition,[3]; [6],39.5 ± 1.7%
same,OCFA Productivity,[3]; propionate 3 + 3 g/L (116 h),2.89 ± 0.06 g/L/day
same,Propionate deposition,[3]; propionate 3 + 3 g/L (116 h),65.0 ± 0.6%
same,OCFA Productivity,[3]; propionate 3 g/L (96 h),1.53 ± 0.02 g/L/day
same,Propionate deposition,[3]; propionate 3 g/L (96 h),57.0 ± 0.9%
same,OCFAs of total DW of algal product,"[3]; three doses of 3 g/L, 60.4% OCFAs of the 63.1% TFA",38.1%
same,daily propionic feed not affecting growth,[4],up to 2 g/L d
same,Total Fatty Acids,[4]; [7],17.3 ± 1.6 % DW
same,Total Lipids,[4]; [7],19.0 ± 0.0 % DW
same,Total Fatty Acids,[4]; [8],16.2 ± 0.5 % DW
same,Total Lipids,[4]; [8],18.3 ± 0.6 % DW
same,Total Fatty Acids,[4]; daily propionate 0 + 0.6 g/L,21.3 ± 2.8 % DW
same,Total Lipids,[4]; daily propionate 0 + 0.6 g/L,21.7 ± 3.2 % DW
same,Total Fatty Acids,[4]; daily propionate 0.3 + 0.3 g/L,21.7 ± 2.5 % DW
same,Total Lipids,[4]; daily propionate 0.3 + 0.3 g/L,23.7 ± 3.5 % DW
same,Cell dry weight,[4]; [9],8.3 ± 1.2 g/L
same,Consumed propionate,[4]; [9],5.1 ± 1.5 g/L
same,Odd chain fatty acids,[4]; [9],1.3 ± 0.5 % DW
same,Propionic acid deposition,[4]; [9],0.6 ± 0.1%
same,growth on propionate as sole carbon source,[4]; FIG. 25,able to grow
same,Consumed propionate,[4]; cyanocobalamin 0 μM,2.6 g/L
same,Propionate deposition,[4]; cyanocobalamin 0 μM,0.99%
same,Consumed propionate,[4]; cyanocobalamin 0.00037 μM,1.7 g/L
same,Propionate deposition,[4]; cyanocobalamin 0.00037 μM,0.83%
same,Cell dry weight,"[4]; propionate 0+0+2+2+2+2 g/L d, cyanocobalamin 0 μM",6.0 g/L
same,Cell dry weight,"[4]; propionate 0+0+2+2+2+2 g/L d, cyanocobalamin 0.00037 μM",5.3 g/L
same,propionic acid deposition rates in OCFAs,[4]; relatively low,< 3 % TFA
same,OCFAs,[4]; total propionate fed batch 8 g/L,0.33 g/L
same,level inhibiting growth of mold and bacteria,mold and bacteria,< 1 % by weight
